Test results reported in patent US9498429B2, “Use of a vegetal extract for the prevention and treatment of hair loss” (GIULIANI S.P.A., priority 2013, dated 2016).

Test system: murine fibroblasts BALB3T3
Test: MTT with induced oxidative stress-BALB3T3
Format: cell-based
Conditions: 25 μM; oxidative stress induced with H2O2
Experimental: (§1) Non-treated cells in DMEM medium (Dulbecco's Modified Eagle's Medium, ATCC, Manassas, Va., USA) added to 2.5% fetal bovine serum (FCS), 1% non-essential amino acids (NEAA), a 1% penicillin and streptomycin mixture (Pen-Strep Mix), and maintained in 25 cm^2 (96 well) culture plates at 37° C. and under 5% CO2.
as §1, with “Cells treated for 2 hrs with 1 mM hydrogen peroxide” for “Non-treated cells”, “CO2 (in the dark). […]” for “CO2.”
Studies conducted in 2005 by Rajapakse and colleagues (2005) have highlighted the possibility of employing a widely used and versatile method such that of the MTT essay for studying the in vitro anti-oxidant activity of active compounds. […] The possible protecting effects may be determined by the assessment of the post-oxidative stress cell viability of cells pre-treated/pre-exposed to the active compounds to be tested, in comparison to cells subjected to the same oxidative stress. […]
The data were expressed as the percentage of cell viability as compared to the non-stressed control cells (ctr), according to the following formula: cell viability/ctr=(Abs sample/Abs ctr)*100 […]

With `Cc1c(C)c2c(c(C)c1O)CC[C@@](C)(CCC[C@H](C)CCC[C@H](C)CCCC(C)C)O2` [α-tocopherol] the Scavenger activity was 43.10.
